# Test results from US9738690B2, “Polyoma virus JC peptides and proteins in vaccination and diagnostic applications” (UNIVERSITAET ZUERICH, priority 2011, dated 2017).
# “Also recorded” adds a separate entry of the source. Where two headings read alike, the source gives them in different places.
# B1: recombinant IL-7: recombinant IL-7 (Cytheris) (protein, UniProt P13232 26-177, looked up)
# Interleukin-7: DCDIEGKDGKQYESVLMVSIDQLLDSMKEIGSNCLNNEFNFFKRHICDANKEGMFLFRAARKLRQFLKMNSTGDFDLHLLKVSEGTTILLNCTGQVKGRKPAALGEAQPTKSLEENKSLKEQKKLNDLCFLKRLLQEIKTCWNKILMGTKEH
# What was measured:
# [1] = tested on: brain-derived PHA-expanded cells; test: Determination of precursor frequency by limiting dilution; type: cell-based, human; conditions: fraction of T cells responding
# Procedure: Frequencies of VP1/VLP-specific cells were determined by limiting dilution. 20, 200, 2.000 or 20.000 brain-derived PHA-expanded cells were seeded in quadruplicates in 96-well U-botton microtiter plates with 1×10^5 autologous irradiated PBMC with or without VP1/VLP protein. After 72 hours, proliferation was measured by methyl-^3H-thymidine incorporation. Frequencies were calculated as previously described (Taswell, 1981). Observed data were: r, the number of negatively responding cultures or wells of each dose i; n, the total number of wells per dose i, and X, the number of cells in the dose i. Calculated data was: pi=ri/ni, the fraction of negatively responding cultures of each dose i. The frequency was calculated using the following formula: f=−(ln pi)/λi.
# [2] = tested on: brain-derived PHA-expanded cells; type: cell-based, human
# [3] = tested on: brain-derived VP1/VLP-specific T cell clones; test: Fine specificity of brain-derived VP1/VLP-specific T cell clones (TCC); type: cell-based, human; conditions: for recognition by brain-derived VP1-specific TCC: each TCC tested against 64 15-mer peptides spanning VP1
# Procedure: 2.5×10^4 brain-derived PHA-expanded cells were seeded in 96-well U-botton microtiter plates with 1×10^5 autologous irradiated PBMC with or without VP1/VLP protein. After 48 hours of culture, plates were split into mother and daughter plates. Proliferation was measured in daughter plates by methyl-^3H-thymidine incorporation. VP1/VLP-responsive cultures were identified in mother plates, and IL-2 was added every 3-4 days until day 12. T cell clones (TCC) were established from positive cultures by seeding cells from VP1/VLP-responsive wells under limiting dilution conditions at 0.3 and 1 cell/well in 96-well U-botton microtiter plates, and addition of 2×10^5 allogeneic, irradiated PBMC and 1 μg/ml of PHA-L in complete RPMI. After 24 h, 20 U/ml of human recombinant IL-2 were added. VP1/VLP specificity was then confirmed seeding 2.5×10^4 cells from growing colonies with autologous irradiated PBMC with or without VP1/VLP protein for 72 h. Specific cultures were restimulated every two weeks with 1 μg/ml PHA-L, 20 U/ml hrIL-2 and allogeneic irradiated PBMC, and hrIL2 was added every 3-4 days.
# Prior data had shown that CD4+ differentiate into certain T helper phenotypes such as Th1 cells (IFN-gamma producers), Th17 cells secreting IL-17, Th2 cells expressing the signature cytokine IL-4, or T regulatory cells based on the expression of certain transcription factors (Zhu et al., 2010). The differentiation into Th1 or Th2 cells is considered mutually exclusive and controlled by the transcription factors T-bet (Th1) and Gata-3 (Th2) (Zhu et al., 2010). […] VP1/VLP-specific TCC were generated as described in material and methods. Initially 21 VP1/VLP-specific single cell-derived cultures were generated by limiting dilution and characterized for TCRV beta expression, functional phenotype and fine specificity (Table 2). This characterization allowed the identification of 11 presumed different TCC. The number of single cell growing cultures corresponding to each TCC gives an idea about the frequency of each TCC in the brain infiltrate (FIG. 3a). TCC-4 was most abundant and represented by 5 colonies emerging from single growing wells, followed by TCC-2 with 3 single cell growing cultures, TCC-1, -8, -9 and -10 with 2 single cell growing cultures and finally TCC-3, -5, -6, -7 and -11 with only 1 single cell growing culture. […] Taking into account both the number of different TCC recognizing a specific peptide and the frequency of each TCC in the brain infiltrate the immunodominant peptides recognized by VP1 specific brain infiltrating TCC were VP134, VP174, VP1319 and VP1335 confirming the fine specificity obtained using the brain-derived bulk cell population (FIG. 3c). […] For three of the immunodominant peptides (VP134, VP1319 and VP1335) we found TCC with both phenotypes. The T helper phenotype of Th1-2 and Th1 TCC was confirmed my measuring IL-4 and IFN-gamma protein secretion by ELISA and by determining the expression of mRNAs of the transcription factors Gata3 and T-bet. Th1-2 TCC (n=5) secreted IL-4 in addition to IFN-gamma, while IL-4 secretion was barely detectable in Th1 TCC (n=6) (FIG. 6c). Cytokine secretion profiles were not due to stimulation with PHA, since the same stable patterns were observed after specific stimulation with VP1/VLP protein by intracellular cytokine staining or ELISA measurements from culture supernatants. Transcription factor expression confirmed the phenotype of the TCC. […]
# [4] = tested on: peripheral blood-derived PHA-expanded cells; type: cell-based, human
# [5] = tested on: CSF-derived PHA-expanded cells; type: cell-based, human
# unmanipulated PBMC = type: cell-based, human
# JCV [6] = test: Individual healing attempt: therapeutic vaccination of PML patients with VP1, imiquimod and IL-7; type: in vivo, human; conditions: patient with idiopathic CD4+ lymphopenia and PML, s.c. VP1 + dermal imiquimod + IL-7
# Procedure: An individual healing attempt was performed in a patient with idiopathic CD4+ lymphopenia, a rare constitutive immunodeficiency, who developed PML (referred to as “patient Hamburg” in FIG. 11). The patient had been healthy, i.e. not experienced unusual or frequent infections, throughout their life, and in February 2010 was hospitalized with signs of an encephalitis of unknown origin. They were thoroughly worked up, and a diagnosis of suspected EBV-related encephalitis was made. Following transient improvement during antiviral therapy, they deteriorated further albeit slowly. […] In parallel, the inventors found a low CD4+ T cell count (around 300/microliter) as well as a CD4+/CD8+ ratio of 0.5 or less, which are both consistent with the diagnosis of idiopathic CD4+ lymphopenia. In addition, in vitro experiments in the laboratory documented an absent T cell response to JCV virus VP1 in peripheral blood mononuclear cells and an almost complete absence of naïve CD4+ T cells. Following these observations, the inventors reasoned that the patient probably had developed PML based on a pre-existing and probably genetically determined low CD4+ number, which became further accentuated by entirely physiological immune involution, which sets in and increases above 50 years of age.
# The vaccination approach in the above patient included the following steps (for timing of vaccinations and tests see scheme below): Subcutaneous injection with the entire recombinant major capsid protein VP1 (provided by the Life Science Inkubator, Bonn) in combination with a dermally applied TLR7 agonist (imiqimod, Aldara; commercially available) and i.v. recombinant IL-7 (Cytheris). The VP1 protein was administered in the form of virus-like particles (VLP), as the recombinantly expressed VP1 protein associated to such particles under the conditions used herein.
# Another individual healing attempt was performed in a patient with breast cancer who received chemotherapy and developed acute myeloid leukaemia (AML) as a side effect of the chemotherapy. The patient then received an autologous and allogeneic hematopoietic stem cell transplant as treatment of the AML and subsequently developed acute graft-versus-host disease (grade IV). […] This case is referred to as “patient Zurich” in FIG. 11. Both patients were treated by recombinant IL-7 (s.c.). 2 days later, the first dose of VP1 (s.c. 1 mg, imiquimod cream on the skin) was administered. 2 days after the first dose of VP1, the second dose of rIL-7 was given.
# On day 12 after the first IL-7 dose, the patients received a second vaccination with VP1 s.c. plus imiquimod, and in this case simultaneously rIL-7. At week 6, a third dose of VP1/imiquimod and a fourth dose of rIL-7 were administered. […] A stimulation index of >2 is considered a positive response.
# JCV [7] = conditions: cited from earlier work
# [8] = tested on: peripheral blood mononuclear cells (PBMC); test: 3H-thymidine incorporation assay of patient PBMC with VP1; type: cell-based, human
# VP1-specific T-cells = test: Flow cytometry characterization of VP1-specific T cells of the vaccinated patient; type: cell-based, human
# [9] = recombinant IL-7 together with antiviral drugs, case of CD4+ lymphopenia; cited from earlier work
molecule,measurement,setting,value
4: 15-mer JCV Agno peptide starting at amino acid 25; likely SEQ ID NO 1 (image row of Table 1) (AQRILIFLLEFLLDF; JC virus) [Peptide 4],precursor frequency of peptide-specific T cells,[1],1/14492
20: 15-mer VP1 peptide starting at amino acid 34; likely SEQ ID NO 2 (image row of Table 1) (VDSITEVECFLTPEM; JC virus) [Peptide 20],"stimulation index (SI), individual JCV peptides","[2]; brain-derived PHA-expanded cells, individual peptides at 10 μM, 72 hours, listed as VP134",strongest response
same,immunodominance among VP1 specific brain infiltrating TCC,[3]; by number of TCC recognizing the peptide and frequency of each TCC,immunodominant
same,recognition by brain-derived VP1-specific TCC,[3],recognized by TCC-1 and -2
23: 15-mer VP1 peptide starting at amino acid 54; likely SEQ ID NO 3 (image row of Table 1) [Peptide 23],recognition by brain-derived VP1-specific TCC,[3],recognized by TCC-3
"Tetanus toxoid [TTx, reference compound]",stimulation index (SI),[4],6.5
same,stimulation index (SI),[2],no response
same,stimulation index (SI),[5],14
same,proliferative response,unmanipulated PBMC,significantly stronger response
VP1/VLP: recombinant JCV major capsid protein VP1 forming virus-like particles; VP1 and VLP used interchangeably,CSF cell counts after vaccination,JCV [6],slightly elevated CSF cell counts
same,JCV viral load after vaccination,JCV [6],0
same,brain MRI imaging after vaccination,JCV [6]; listed as VP1,slight contrast enhancement around the PML lesions
same,clinical course after vaccination,JCV [6]; listed as VP1,clinical improvement with slight delay; also recorded: clinically improving
same,immune response after vaccination with Freund's Complete Adjuvant (FCA),JCV [7]; with FCA,induces an immune response
same,immune response after vaccination without adjuvant,JCV [7]; without adjuvant,not immunogenic
same,stimulation index (SI),"[4]; PHA-expanded PBMC, VP1/VLP 2 μg/ml, TTx 5 μg/ml, 72 hours",negative
same,"immune response against JCV after vaccination (stimulation index, >2 positive)","[8]; patient Hamburg and patient Zurich, PBMC 1×10e5 cells/well with VP1/VLP, 7 days, VP1 s.c. 1 mg + imiquimod + rIL-7",positive immune response against JCV
same,T cell response to JCV VP1 in PBMC before vaccination,"[8]; patient with idiopathic CD4+ lymphopenia and PML, before vaccination",absent
same,in vitro proliferative response against JCV VP1 after vaccination,"[8]; patient with idiopathic CD4+ lymphopenia and PML, s.c. VP1 + dermal imiquimod + IL-7",in vitro proliferative response against JCV VP1 after only two vaccinations
same,stimulation index (SI),"[2]; brain-derived PHA-expanded T cells, VP1/VLP 2 μg/ml, TTx 5 μg/ml, 72 hours",> 600
same,cell type proliferating after VP1 stimulus,VP1-specific T-cells; 6 weeks after immunization,Only CD4+ cells proliferate
same,cytokine expression of CD4+ T cells after VP1 stimulation,"VP1-specific T-cells; antigen day 0, restimulated day 6, intracellular cytokine staining, FACS",produce IFN-gamma after VP1 stimulation
same,stimulation index (SI),"[5]; CSF-derived PHA-expanded cells, VP1/VLP 2 μg/ml, TTx 5 μg/ml, 72 hours",7
"VP191: 15-mer VP1 peptide starting at amino acid 91; likely peptide 31, SEQ ID NO 11 (LNEDLTCGNILMWEA; JC virus)",recognition by brain-derived VP1-specific TCC,[3],recognized by TCC-5
"VP1143: 15-mer VP1 peptide starting at amino acid 143; likely peptide 43, SEQ ID NO 23 (HFFSVGGEALELQGV; JC virus)",recognition by brain-derived VP1-specific TCC,[3],recognized by TCC-6
B1,clinical outcome,[9],substantial improvement
